Where a name gives a salt, the structure may show the parent alone.
Legend:
LD50 (acute toxicity) = details: in vivo
Tetrabenazine = experiment: animal or person; assay type: in vivo; details: read-out: ED50 Tetrabenazine Antagonism
in vivo = assay type: in vivo; details: in vivo; ratio of LD50 to ED50 tetrabenazine antagonism (head is a drawing); read-out: Dosage [drawing 7]

Structure (SMILES)	LD50 (LD50 (acute toxicity))	ED50 (Tetrabenazine)	selectivity ratio (in vivo)
Cc1ccc2c(c1)c1c3n2CCNC3CCC1.Cl (centres unmarked) [8-methyl-2,3,3a,4,5,6-hexahydro-1H-pyrazino[3,2,1-jk]carbazole-hydrochloride, reference compound]	122 mg/kg	14 mg/kg	–
Cc1ccc2c(c1)c1c3n2CCN=C3CCC1 [Example 1, 8-methyl-2,4,5,6-tetrahydro-1H-pyrazino[3,2,1-jk]carbazole]	72 mg/kg	4 mg/kg	18
COc1ccc2c(c1)c1c3n2CCN=C3CCC1 [Example 2, 8-methoxy-2,4,5,6-tetrahydro-1H-pyrazino[3,2,1-jk] carbazole-hydrochlorides]	37 mg/kg	2 mg/kg	18.5

From patent US4258043A, “Pyrazino-carbazoles, process for the production thereof and pharmaceutical agents” (Cassella Aktiengesellschaft, priority 1979, dated 1981)
